Reference: patent US20180273531A1, “PYRIMIDINE COMPOUND AND MEDICAL USE THEREOF” (Japan Tobacco Inc., priority 2004, published 2018)

The molecules below were run on Renal cancer cell line ACHN cell (assay: Growth inhibitory effect against cancer cell lines (3H-thymidine uptake), ACHN). Conditions: Homo sapiens, ACHN.
Type: cell-based
Protocol: (§1) Renal cancer cell line ACHN cell or colorectal cancer cell line HT-29 cells were cultured in a 96 well plate at 1.0×10^4 cells/90 μL/well for 24 hrs, then a test substance dissolved in DMSO (dimethyl sulfoxide) was added. After 18 hrs, ^3H-thymidine (0.25 μCi/well) was added and the cells were cultured for 6 hrs. Using a cell harvester, the cells were recovered on a UniFilter-96 GF/B glass filter and the ^3H radioactivity uptaken by the cells was measured by TopCount (Packard). As a control, DMSO was used and the activity of the test substance was expressed in the concentration (IC50) necessary for inhibiting ^3H radioactivity uptaken by the cell to 50% of that of the control group. The measurements were made in triplicate.

| SMILES | IC50 [nM] |
| --- | --- |
| Cc1ccccc1-n1c(=O)n(C2CC2)c(=O)c2c(Nc3ccc(N(C)C)cc3)cc(=O)n(C)c21 [Example 1-106] | 100 to 1000 |
| Cn1c(=O)cc(Nc2ccc(Br)cc2)c2c(=O)n(C3CC3)c(=O)n(-c3ccccc3F)c21 [Example 1-113] | 100 to 1000 |
| Cn1c(=O)cc(Nc2ccc(Br)cc2Cl)c2c(=O)n(C3CC3)c(=O)n(-c3ccccc3)c21 [Example 1-176] | 100 to 1000 |
| Cn1c(=O)cc(Nc2ccc(Br)cc2F)c2c(=O)n(C3CC3)c(=O)n(-c3ccc(O)cc3)c21 [Example 1-188] | 100 to 1000 |
| CN(C)c1ccc(Nc2cc(=O)n(C)c3c2c(=O)n(C2CC2)c(=O)n3-c2ccccc2)c(F)c1 [Example 1-192] | 100 to 1000 |
| CN(C)c1ccc(Nc2cc(=O)n(C)c3c2c(=O)n(C2CC2)c(=O)n3-c2cccc(N3CCOCC3)c2)c(F)c1 [Example 1-205] | 100 to 1000 |
| C#Cc1ccc(Nc2cc(=O)n(C)c3c2c(=O)n(C2CC2)c(=O)n3-c2ccccc2)c(F)c1 [Example 1-208] | 10 to 100 |
| Cn1c(=O)cc(Nc2ccc(Br)cc2F)c2c(=O)n(C3CC3)c(=O)n(-c3cccc(S(C)(=O)=O)c3)c21 [Example 1-223] | 100 to 1000 |
| CCOC(=O)Nc1cccc(-n2c(=O)n(C3CC3)c(=O)c3c(Nc4ccc(Br)cc4F)cc(=O)n(C)c32)c1 [Example 1-308] | 100 to 1000 |
| C#Cc1ccc(Nc2cc(=O)n(C)c3c2c(=O)n(C2CC2)c(=O)n3-c2cccc(NS(=O)(=O)C(C)C)c2)c(F)c1 [Example 1-321] | 10 to 100 |
| Cc1c(Nc2ccc(Br)cc2F)c2c(=O)n(C3CC3)c(=O)n(-c3cccc(NS(C)(=O)=O)c3)c2n(C)c1=O [Example 1-333] | 10 to 100 |

Other lines, results leading:

| IC50 [nM] | SMILES |
| --- | --- |
| 100 to 1000 | COc1cccc(-n2c(=O)n(C3CC3)c(=O)c3c(Nc4ccc(Br)cc4F)cc(=O)n(C)c32)c1 [Example 1-191] |
| 100 to 1000 | Cn1c(=O)cc(Nc2ccc(Br)cc2F)c2c(=O)n(C3CC3)c(=O)n(-c3cccc(N4CCOCC4)c3)c21 [Example 1-193] |
| 100 to 1000 | CN(C)c1cccc(-n2c(=O)n(C3CC3)c(=O)c3c(Nc4ccc(Br)cc4F)cc(=O)n(C)c32)c1 [Example 1-199] |
| 100 to 1000 | Cn1c(=O)c2c(Nc3ccc(Br)cc3Cl)cc(=O)n(C)c2n(-c2ccccc2)c1=O [Example 1-200] |
| 10 to 100 | Cn1c(=O)cc(Nc2ccc(I)cc2F)c2c(=O)n(C3CC3)c(=O)n(-c3ccccc3)c21 [Example 1-207] |
| 100 to 1000 | Cn1c(=O)cc(Nc2ccc(Br)cc2F)c2c(=O)n(C3CC3)c(=O)n(-c3cccc(N4CCCC4=O)c3)c21 [Example 1-212] |
| 100 to 1000 | Cn1c(=O)cc(Nc2ccc(Br)cc2F)c2c(=O)n(C3CC3)c(=O)n(-c3cccc(O)c3)c21 [Example 1-213] |
| 100 to 1000 | CN(C)CC#Cc1ccc(Nc2cc(=O)n(C)c3c2c(=O)n(C2CC2)c(=O)n3-c2ccccc2)c(F)c1 [Example 1-246] |
| 100 to 1000 | CCC(=O)Nc1cccc(-n2c(=O)n(C3CC3)c(=O)c3c(Nc4ccc(Br)cc4F)cc(=O)n(C)c32)c1 [Example 1-278] |
| 100 to 1000 | Cn1c(=O)cc(Nc2ccc(Br)cc2)c2c(=O)n(C3CC3)c(=O)n(-c3cccc(NS(C)(=O)=O)c3)c21 [Example 1-304] |
| 100 to 1000 | Cn1c(=O)cc(Nc2ccc(Br)cc2F)c2c(=O)n(C3CC3)c(=O)n(-c3cccc(NS(=O)(=O)c4cccnc4)c3)c21 [Example 1-335] |

What follows are molecules tested on colorectal cancer cell line HT-29 cells (assay: Growth inhibitory effect against cancer cell lines (3H-thymidine uptake), HT-29). Conditions: Homo sapiens, HT-29, inhibition of 3H-thymidine uptake; test substance 18 hrs, then 3H-thymidine 6 hrs; triplicate.
Type: cell-based
Protocol: as §1

| SMILES | IC50 [nM] |
| --- | --- |
| Cc1ccccc1-n1c(=O)n(C2CC2)c(=O)c2c(Nc3ccc(N(C)C)cc3)cc(=O)n(C)c21 [Example 1-106] | 100 to 1000 |
| Cn1c(=O)cc(Nc2ccc(Br)cc2)c2c(=O)n(C3CC3)c(=O)n(-c3ccccc3F)c21 [Example 1-113] | 100 to 1000 |
| Cn1c(=O)cc(Nc2ccc(Br)cc2Cl)c2c(=O)n(C3CC3)c(=O)n(-c3ccccc3)c21 [Example 1-176] | 10 to 100 |
| Cn1c(=O)cc(Nc2ccc(Br)cc2F)c2c(=O)n(C3CC3)c(=O)n(-c3ccc(O)cc3)c21 [Example 1-188] | 10 to 100 |
| CN(C)c1ccc(Nc2cc(=O)n(C)c3c2c(=O)n(C2CC2)c(=O)n3-c2ccccc2)c(F)c1 [Example 1-192] | 10 to 100 |
| CN(C)c1ccc(Nc2cc(=O)n(C)c3c2c(=O)n(C2CC2)c(=O)n3-c2cccc(N3CCOCC3)c2)c(F)c1 [Example 1-205] | < 10 |
| C#Cc1ccc(Nc2cc(=O)n(C)c3c2c(=O)n(C2CC2)c(=O)n3-c2ccccc2)c(F)c1 [Example 1-208] | < 10 |
| Cn1c(=O)cc(Nc2ccc(Br)cc2F)c2c(=O)n(C3CC3)c(=O)n(-c3cccc(S(C)(=O)=O)c3)c21 [Example 1-223] | 10 to 100 |
| CCOC(=O)Nc1cccc(-n2c(=O)n(C3CC3)c(=O)c3c(Nc4ccc(Br)cc4F)cc(=O)n(C)c32)c1 [Example 1-308] | 10 to 100 |
| C#Cc1ccc(Nc2cc(=O)n(C)c3c2c(=O)n(C2CC2)c(=O)n3-c2cccc(NS(=O)(=O)C(C)C)c2)c(F)c1 [Example 1-321] | < 10 |
| Cc1c(Nc2ccc(Br)cc2F)c2c(=O)n(C3CC3)c(=O)n(-c3cccc(NS(C)(=O)=O)c3)c2n(C)c1=O [Example 1-333] | < 10 |

The remaining lines, values ahead:

| IC50 [nM] | SMILES |
| --- | --- |
| 10 to 100 | COc1cccc(-n2c(=O)n(C3CC3)c(=O)c3c(Nc4ccc(Br)cc4F)cc(=O)n(C)c32)c1 [Example 1-191] |
| < 10 | Cn1c(=O)cc(Nc2ccc(Br)cc2F)c2c(=O)n(C3CC3)c(=O)n(-c3cccc(N4CCOCC4)c3)c21 [Example 1-193] |
| 10 to 100 | CN(C)c1cccc(-n2c(=O)n(C3CC3)c(=O)c3c(Nc4ccc(Br)cc4F)cc(=O)n(C)c32)c1 [Example 1-199] |
| 10 to 100 | Cn1c(=O)c2c(Nc3ccc(Br)cc3Cl)cc(=O)n(C)c2n(-c2ccccc2)c1=O [Example 1-200] |
| < 10 | Cn1c(=O)cc(Nc2ccc(I)cc2F)c2c(=O)n(C3CC3)c(=O)n(-c3ccccc3)c21 [Example 1-207] |
| < 10 | Cn1c(=O)cc(Nc2ccc(Br)cc2F)c2c(=O)n(C3CC3)c(=O)n(-c3cccc(N4CCCC4=O)c3)c21 [Example 1-212] |
| 10 to 100 | Cn1c(=O)cc(Nc2ccc(Br)cc2F)c2c(=O)n(C3CC3)c(=O)n(-c3cccc(O)c3)c21 [Example 1-213] |
| 10 to 100 | CN(C)CC#Cc1ccc(Nc2cc(=O)n(C)c3c2c(=O)n(C2CC2)c(=O)n3-c2ccccc2)c(F)c1 [Example 1-246] |
| 10 to 100 | CCC(=O)Nc1cccc(-n2c(=O)n(C3CC3)c(=O)c3c(Nc4ccc(Br)cc4F)cc(=O)n(C)c32)c1 [Example 1-278] |
| 10 to 100 | Cn1c(=O)cc(Nc2ccc(Br)cc2)c2c(=O)n(C3CC3)c(=O)n(-c3cccc(NS(C)(=O)=O)c3)c21 [Example 1-304] |
| 10 to 100 | Cn1c(=O)cc(Nc2ccc(Br)cc2F)c2c(=O)n(C3CC3)c(=O)n(-c3cccc(NS(=O)(=O)c4cccnc4)c3)c21 [Example 1-335] |

The molecules below were run on p15 protein (assay: Evaluation of p15 induction activity (Western blotting)). Conditions: test substance 0.1 μM, 24 hrs, ACHN cells or HT-29 cells, compared to DMSO, n=2.
Type: cell-based
Protocol: ACHN cells or HT-29 cells were cultured in a 6 well plate at 2.5×10^5 cells/1.8 mL/well for 24 hrs, then a test substance (0.1 μM) dissolved in DMSO was added. After 24 hrs, cells were detached using trypsin-EDTA (ethylene diamine tetraacetic acid) and solubilized with NuPAGE LDS sample buffer (Invitrogen). Using an RC DC protein assay kit (BIO-RAD), the protein concentration of the sample was quantitated, and a sample in an amount corresponding to 10 μg of BSA (bovine serum albumin) was analyzed by Western blotting using an anti-p15 antibody. The density of the band stained with the anti-p15 antibody was measured by a densitometer to quantify the amount of p15 protein. As a control, DMSO was used and the test was performed with n=2 and the average protein amount was determined.

| SMILES | fold induction at 0.1 µM |
| --- | --- |
| Cc1ccccc1-n1c(=O)n(C2CC2)c(=O)c2c(Nc3ccc(N(C)C)cc3)cc(=O)n(C)c21 [Example 1-106] | ≥ 1.5 |
| Cn1c(=O)cc(Nc2ccc(Br)cc2)c2c(=O)n(C3CC3)c(=O)n(-c3ccccc3F)c21 [Example 1-113] | ≥ 1.5 |
| Cn1c(=O)cc(Nc2ccc(Br)cc2Cl)c2c(=O)n(C3CC3)c(=O)n(-c3ccccc3)c21 [Example 1-176] | ≥ 1.5 |
| Cn1c(=O)cc(Nc2ccc(Br)cc2F)c2c(=O)n(C3CC3)c(=O)n(-c3ccc(O)cc3)c21 [Example 1-188] | ≥ 1.5 |
| COc1cccc(-n2c(=O)n(C3CC3)c(=O)c3c(Nc4ccc(Br)cc4F)cc(=O)n(C)c32)c1 [Example 1-191] | ≥ 1.5 |
| CN(C)c1ccc(Nc2cc(=O)n(C)c3c2c(=O)n(C2CC2)c(=O)n3-c2ccccc2)c(F)c1 [Example 1-192] | ≥ 1.5 |
| Cn1c(=O)cc(Nc2ccc(Br)cc2F)c2c(=O)n(C3CC3)c(=O)n(-c3cccc(N4CCOCC4)c3)c21 [Example 1-193] | ≥ 1.5 |
| CN(C)c1cccc(-n2c(=O)n(C3CC3)c(=O)c3c(Nc4ccc(Br)cc4F)cc(=O)n(C)c32)c1 [Example 1-199] | ≥ 1.5 |
| Cn1c(=O)c2c(Nc3ccc(Br)cc3Cl)cc(=O)n(C)c2n(-c2ccccc2)c1=O [Example 1-200] | ≥ 1.5 |
| CN(C)c1ccc(Nc2cc(=O)n(C)c3c2c(=O)n(C2CC2)c(=O)n3-c2cccc(N3CCOCC3)c2)c(F)c1 [Example 1-205] | ≥ 1.5 |
| Cn1c(=O)cc(Nc2ccc(I)cc2F)c2c(=O)n(C3CC3)c(=O)n(-c3ccccc3)c21 [Example 1-207] | ≥ 1.5 |
| C#Cc1ccc(Nc2cc(=O)n(C)c3c2c(=O)n(C2CC2)c(=O)n3-c2ccccc2)c(F)c1 [Example 1-208] | ≥ 1.5 |
| Cn1c(=O)cc(Nc2ccc(Br)cc2F)c2c(=O)n(C3CC3)c(=O)n(-c3cccc(N4CCCC4=O)c3)c21 [Example 1-212] | ≥ 1.5 |
| Cn1c(=O)cc(Nc2ccc(Br)cc2F)c2c(=O)n(C3CC3)c(=O)n(-c3cccc(O)c3)c21 [Example 1-213] | ≥ 1.5 |
| Cn1c(=O)cc(Nc2ccc(Br)cc2F)c2c(=O)n(C3CC3)c(=O)n(-c3cccc(S(C)(=O)=O)c3)c21 [Example 1-223] | ≥ 1.5 |
| CN(C)CC#Cc1ccc(Nc2cc(=O)n(C)c3c2c(=O)n(C2CC2)c(=O)n3-c2ccccc2)c(F)c1 [Example 1-246] | ≥ 1.5 |
| C#Cc1ccc(Nc2cc(=O)n(C)c3c2c(=O)n(C2CC2)c(=O)n3-c2cccc(NS(=O)(=O)C(C)C)c2)c(F)c1 [Example 1-321] | ≥ 1.5 |
| Cc1c(Nc2ccc(Br)cc2F)c2c(=O)n(C3CC3)c(=O)n(-c3cccc(NS(C)(=O)=O)c3)c2n(C)c1=O [Example 1-333] | ≥ 1.5 |
